Source: patent US20160008490A1, “METAL CHELATE COMPOUNDS FOR BINDING TO THE PLATELET SPECIFIC GLYCOPROTEIN IIB/IIIA” (BAYER PHARMA AKTIENGESELLSCHAFT, priority 2013, published 2016)

Assays:
[1] = Relaxivity measurements at 1.41 T in water and plasma; format: physicochemical; settings: relaxivity normalized to Gd, 37° C.
Method: Relaxivity measurements at 1.41 T were performed using a MiniSpec mq60 spectrometer (Bruker Analytik, Karlsruhe) operating at a resonance frequency of 60 MHz and a temperature of 37° C. The T1 relaxation times were determined using the standard inversion recovery method. The T2 measurements were done by using the Carr-Purcell-Meiboom-Gill (CPMG) pulse sequence. All measurements were done at concentrations between 0.05 mM and 1 mM of Gd in water and plasma.
The relaxivities ri (where i=1, 2) were calculated on the basis of the measured relaxation rates Ri in water and plasma:
where Ri(0) represent the relaxation rate of the respective solvent and CGd the concentration of the compound normalized to the Gadolium.

[2] = tested on: human activated platelets; assay: Binding of investigated compounds to human activated platelets (ICP-MS of Gd in pellet and supernatant); format: cell-based; settings: incubation concentration 1 μM molecule
Method: For each experiment fresh blood was taken from a volunteer using 10 mL citrate-tubes (Sarstedt S-Monovette 02.1067.001, 10 mL, Citrate 3.13%). The 10 mL citrate-tubes were carefully inverted 10 times to mix blood and anticoagulant. The tubes were stored in an incubator at a temperature of 37° C. until centrifugation (Heraeus miniTherm CTT with integrated rotation- and turning device, turning speed: 19 rotations per minute, Heraeus Instruments GmbH, Hanau/Germany).
For plasma preparation tube centrifugation was carried out for 15 minutes at 1811 g at room temperature (Eppendorf, Centrifuge 5810R). Blood was centrifuged 15 minutes at 201 g at room temperature to produce platelet-rich plasma. The tubes were stored for 30 min at room temperature to get a better separation. The separated platelet-rich plasma was finally centrifuged for further 3 min at 453 g to remove the remaining erythrocytes. The platelet-rich plasma was activated using a final concentration of 5 μM Adenosindiphosphate (ADP, Sigma). The activated platelet-rich plasma was incubated 20 minutes with different concentrations of gadolinium-labeled compound and subsequently was centrifuged 3 minutes at 1360 g. 20 μL of incubation solution was taken to determine the concentration (n=3). […] The gadolinium concentration of supernatant and pellet was determined using an inductively coupled plasma mass spectrometry (ICP-MS Agilent 7500a).
The results for incubation concentration of 1 μM gadolinium-labeled compound are summarized in table 3 (in comparison to Gadovist® standard dose: 100 μmol Gd/kg body weight).

[3] = tested on: in vitro platelet-rich thrombi; assay: Magnetic resonance imaging of in vitro platelet-rich thrombi; format: cell-based, human; settings: 10 μmol substance/L, 20 min incubation, washed three times with plasma, 1.5 T, versus control thrombus without contrast agent
Method: Magnetic resonance imaging of in vitro platelet-rich thrombi and incubation solution (example 8) using a 3D turbo spin echo sequence (1.5 T, Siemens Avanto, small extremity coil, TR 1050 ms, TE 9.1 ms, 0.5×0.5×0.6 mm^3). In FIG. 2a an in vitro control thrombus without the addition of a contrast agent is shown. The signal intensity of the control thrombus is slightly higher than the surrounding medium but clearly lower than the signal of the in vitro thrombus which was incubated with example 8 as depicted in FIG. 2b. In FIG. 2c the incubation solution with a final concentration of 10 μmol substance/L of example 8 in human plasma is represented. The signal intensity is higher than the surrounding plasma solutions in the in vitro platelet-rich thrombi 2a and 2b.
The in vitro thrombus in FIG. 2b is incubated with the solution which is depicted in FIG. 2c. After 20 min incubation period the thrombi was washed three times with plasma solution.
The MRI imaging experiments were done with platelet-rich plasma. The preparation of platelet-rich plasma using fresh blood is described in L K Jennings et. al. Blood 1986 1, 173-179 but modified with regard to centrifugation procedure. Briefly, fresh blood was taken from a volunteer using 10 mL citrate-tubes (Sarstedt S-Monovette 02.1067.001, 10 mL, Citrate 3.13%). The 10 mL citrate-tubes were carefully inverted 10 times to mix blood and anticoagulant. […]

CC(C(=O)NCC(=O)NC[C@H](NC(=O)CNC(=O)C(C)N1CCN(CC(=O)O)CCN(CC(=O)O)CCN(CC(=O)O)CC1)C(=O)NC[C@H](NC(=O)[C@H](CNC(=O)CNC(=O)C(C)N1CCN(CC(=O)O)CCN(CC(=O)O)CCN(CC(=O)O)CC1)NC(=O)CNC(=O)C(C)N1CCN(CC(=O)O)CCN(CC(=O)O)CCN(CC(=O)O)CC1)C(=O)NCCCCc1cccc(C#Cc2cncc([C@H](CC(=O)O)NC(=O)[C@@H]3CCCN(C(=O)CCC4CCNCC4)C3)c2)c1)N1CCN(CC(=O)O)CCN(CC(=O)O)CCN(CC(=O)O)CC1 (some centres unmarked) [Example 8]
r1 plasma ([1]; plasma): 14.5 L/mmol/s
r1 water ([1]; water): 12.6 L/mmol/s
Concentration within platelet pellet ([2]; ADP-activated platelet-rich plasma, 20 minutes, pellet washed): 26.7 ± 1.5 μM Gd
pellet/supernatant ([2]; ratio of Gd concentration): 254 ± 26 (n = 3)
signal intensity of incubated in vitro thrombus (T1-weighted 3D TSE MRI) [3]: clearly higher signal than the control thrombi
